Measurements published in paper PMC8833215 (2022).

Assays:
[1] = tested on: 5'GAG/3'CCC internal loop RNA (Cy5-labeled model of pri-miR-27a's Drosha site) (RNA, mismatch bulge abasic) CUGAGGUGAAACAUCCCAG; assay: microscale thermophoresis; details: 1x Binding Buffer; for Kd: 0.1% Tween-20, 10 nM Cy5-RNA, room temperature
[2] = tested on: 5'CAG/3'GCC internal loop RNA (closing GC mutated to CG) (RNA, mismatch bulge abasic) CUCAGGUGAAACAUCCGAG; assay: microscale thermophoresis; details: 1x Binding Buffer, 0.1% Tween-20, room temperature; for Kd: no saturable binding
[3] = tested on: mutated pri-miR-27a (both 5'GAG/3'CCC loops mutated to base pairs) (RNA, miRNA) GAGAGAGGCCCCGAAGCCUGUGCCUGGCCUGAGGAGCAGGGCUUAGCUGCUUGUGAGCAGGGUCCACACCAAGUCGUGUUCACAGUGGCUAAGUUCCGCUCCUCAGGCCCUCACCUCCUCUGGCCUUGCC; assay: competitive binding assay; details: 100 nM compound; competes with Cy5-labeled model of the Drosha site
[4] = tested on: WT pri-miR-27a (unlabeled miR-27a precursor) (RNA, miRNA) GAGAGAGGCCCCGAAGCCUGUGCCUGGCCUGAGGAGCAGGGCUUAGCUGCUUGUGAGCAGGGUCCACACCAAGUCGUGUUCACAGUGGCUAAGUUCCGCCCCCCAGGCCCUCACCUCCUCUGGCCUUGCC; assay: competitive binding assay; details: 100 nM compound; competes with Cy5-labeled model of the Drosha site
[5] = tested on: fully paired RNA (loop mutated to a base pair) (RNA, hairpin) CUGAGGUGAAACAUCUCAG; assay: microscale thermophoresis; details: 1x Binding Buffer, 0.1% Tween-20, room temperature

Kd [1] | Kd [2] | binding [3] | Kd [4] | binding ([5]; no saturable binding) | binding ([1]; 0.1% Tween-20, room temperature) | binding [2] | binding [5] | Structure (SMILES)
0.09 ± 0.02 µM | > 50 µM | no | 0.04 ± 0.03 µM | no | – | – | – | C#CCN(CC(N)=O)C(=O)C[C@H](Cc1c[nH]c2ccccc12)NC(=O)[C@@H]1C[C@H](NC(=O)Cn2c(=O)[nH]c3ccccc3c2=O)CN1
0.7 ± 0.1 µM | > 50 µM | – | – | no | – | – | – | C#CCN(CC(N)=O)C(=O)[C@@H]1CCN1C(=O)[C@@H]1C[C@H](N)CN1C(=O)c1ccccc1C(=O)N1CCOCC1
0.53 ± 0.09 µM | > 50 µM | – | – | no | – | – | – | C#CCN(CC(N)=O)C(=O)[C@H](Cc1ccccc1C#N)NC(=O)[C@@H]1C[C@H](NC(=O)[C@H]2CCCO2)CN1
– | – | – | – | – | no | no | no | C#CCN(CC(N)=O)C(=O)C[C@H](Cc1c[nH]c2ccccc12)NC(=O)[C@@H]1C[C@@H](NC(=O)Cn2c(=O)[nH]c3ccccc3c2=O)CN1
